Columns and labels:
[1] = system: phosphorylated RNA polymerase II (pPolII); experiment: Flow cytometry of pPolII in lymphocytes (PBMC preparations); format: in vivo, human; conditions: Module 1A, across all doses, Cycle 2 Day 1
Description: Per-protocol ctDNA samples were taken in Module 1B-1 at screening, C1D1, C2D1 and on D1 of alternating cycles from Cycle 3; in Module 2A at screening, C1D1 and at either C2D1 (240 mg) or C2D15 (360 mg) for mutational analysis[24],[33], (Supplementary Information). pPolII in lymphocytes and pPolII and pCDK1/2/3 in core needle tissue samples from patients recruited to the paired biopsy cohort were evaluated for on-target pharmacodynamic analyses. […]
with the sponsor. All investigator sites attended the SRC so that updates on toxicity and MTD could be communicated immediately. No more than 6 participants could be recruited at a non-tolerated dose […]
A summary of DLTs by cohort is provided in Supplementary Table 5. […]
Cells were analysed cells on a BD Fortessa X20, acquiring 100,000 events. […]
analysed using FlowJo (Treestar) version 10.4.2 to report the median fluorescence intensity of staining […]
although not reaching statistical significance due to the low number of patients. pPolII was determined by a flow cytometry assay on samples of peripheral blood mononuclear cell (PBMC) preparations […]
H-scores for pre-dose and on-study biopsies and summary statistics for the observed H-score when stained for pCDK1/2/3 and pPolII are shown in Supplementary Table 11. Significance was calculated using Student’s one-tailed paired t-test, where the alternative hypothesis was that on-study samples had […]

reticulocyte counts = experiment: Reticulocyte counts in Module 1A patients; format: in vivo, human
Excerpt: Enumeration of reticulocyte counts was used as a biomechanical PDc marker, based on the mechanistic r ationale and non-clinical d ata d escrib ed in Section V1.1.4. A cr oss all dose l evels […]
2). Subjects who cam e o ff treatment fo r unrelated reasons have shown a s ubsequent increase […]
induced and reversible.Of note, across dose levels and cycl es anaemia has been uncommon to date (see IB). However, it is to be recognized that onl y few Module 1A patients have stayed on CT7001 for four months or longer.
Fi g u re 2: Average reticulocyte counts across first three dosing cohorts (120, 240 & 480 […]
Reticulocyte co unts for subj ects across the three cohorts were monitored over time. Values on treatment were nor malized to the avera ge value observed for each patient fro m scree ni ng a nd p re-treatment c ycle 0 sa mp les. Data are mean ± standard error of the mean for between n=35 and n=1 samples (denoted by symbol color). Linear […]
V1.1.5.4 Minimum Biologically Active Dos e (MBA D)
The study’s SRC originally d eclar ed 240 mg OD as MBAD based on observed target toxicit y (diarrhoea), target-medi ated PDc ef fect on reticul ocyt e counts and preliminar y si gnals of anti-tumour activity. This prompted the opening of a cohort with paired breast cancer biopsies at […]
similar biological activity as observed for 240 m g OD, including PDc and anti-tumour ef fects. […]

[2] = design: method as in ref IB; conditions: ref IB, cited from earlier work

Which “Reduction of pPolII in lymphocytes” value [1] does the source give for `CC(C)c1cnn2c(NCc3ccccc3)cc(NC[C@H]3CCNC[C@@H]3O)nc12` [samuraciclib, Samuraciclib] here?
Its value is “approximately 30%”.

And the Reticulocyte counts (reticulocyte counts; across all dose levels tested in Module 1A)?
Its Reticulocyte counts is “decline in reticulocyt”.

What about the “Increase of reticulocyte counts after coming off treatment” value (reticulocyte counts; p = 0.08) of the same compound?
Its value is 25%.

What about the Oral bioavailability ([2]; rat) of the same compound?
The Oral bioavailability was “good oral bioavailability”.

And the “Apparent elimination half-life (T½)” value ([2]; rats)?
Its value is 4.8 h.

And the Plasma clearance ([2]; rats)?
Its Plasma clearance is “high”.

What about the Volume of distribution ([2]; rats) of the same compound?
The Volume of distribution was “high volume of distribution”.

Reference: paper PMC10366102, “Dose escalation and expansion cohorts in patients with advanced breast cancer in a Phase I study of the CDK7-inhibitor samuraciclib” (Nature Communications, 2023)
